Results as given in patent US11180487B2, “Substituted cyanoindoline derivatives as NIK inhibitors” (Janssen Pharmaceutica NV, priority 2016, dated 2021).
Like-named read-outs stand apart in the source and are kept apart here.

How the values were obtained:
[1] = molecular target: recombinant human NF-kappaB-inducing kinase (NIK/MAP3K14) (Homo sapiens, UniProt Q99558); experiment: Inhibition of auto-phosphorylation of recombinant human NIK/MAP3K14 activity (AlphaScreen), Biological Assay A; assay type: biochemical; settings: averaged values over all measurements on all batches
Outline: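 GST-tagged enzyme (0.2 nM) incubated with compound and 25 μM ATP in 50 mM Tris pH 7.5, 5 mM MgCl2, 1 mM EGTA, 1 mM DTT, 0.1 mM Na3VO4, 1% DMSO, 1 h at 25 °C. Stopped with anti-phospho-IKK Ser176/180 antibody; AlphaScreen bead read, blank-subtracted, IC50 from sigmoidal fit.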

[2] = test system: P-IKKα levels in L363 (NIK translocated multiple myeloma) cells; experiment: Effect of compounds on P-IKKα levels in L363 cells (Mesoscale sandwich immuno-assay), Biological Assay B; assay type: cell-based, human; settings: 2 hr treatment, averaged values, read-out: Inhibition of pIKKα_L-363 (IC50 (nM))
Protocol: Effect of Compounds on P-IKKα Levels in L363 (NIK Translocated Multiple Myeloma) Cells
All compounds tested were dissolved in DMSO and further dilutions were made in culture medium. Final DMSO concentration was 1% (v/v) in cell assays. The human L363 cells (ATCC) were cultured in RPMI 1640 medium supplemented with GlutaMax and 10% fetal calf serum (PAA). Cells were routinely maintained at densities of 0.2×10^6 cells per ml-1×10^6 cells per ml at 37° C. in a humidified 5% CO2 atmosphere. Cells were passaged twice a week splitting back to obtain the low density. Cells were seeded in 96 well plates (Nunc 167008) at 2×10^6 per ml media in a volume of 75 μl per well plus 25 μl 1 μg/ml recombinant human B-cell activating factor (BAFF/BLyS/TNFSF13B). Seeded cells were incubated at 37° C. in a humidified 5% CO2 atmosphere for 24 hr. Drugs and/or solvents were added (20 μl) to a final volume of 120 μl. Following 2 hr treatment plates were removed from the incubator and cell lysis was achieved by the addition of 30 μl 5× lysis buffer followed by shaking on a plate shaker at 4° C. for 10 min. At the end of this incubation lysed cells were centrifuged at 800×g for 20 min at 4° C. and the lysate was assessed for P-IKKα levels by sandwich immuno-assay carried out in anti-rabbit antibody coated Mesoscale plates. Within an experiment, the results for each treatment were the mean of 2 replicate wells. For initial screening purposes, compounds were tested using an 8 point dilution curve (serial 1:3 dilutions). For each experiment, controls (containing MG132 and BAFF but no test drug) and a blank incubation (containing MG132 and BAFF and 10 μM ADS125117, a test concentration known to give full inhibition) were run in parallel. The blank incubation value was subtracted from all control and sample values. To determine the IC50 a sigmoidal curve was fitted to the plot of % inhibition of control P-IKKα levels versus Log10 compound concentration.
Note: Compounds 237 and 238 were tested at a maximum top concentration of 823 nM.

[3] = test system: JJN-3 (NIK translocated) multiple myeloma cells; experiment: Antiproliferative activity on JJN-3 multiple myeloma cells (CellTiter-Glo, 96 hr), Biological Assay C; assay type: cell-based, human; settings: JJN-3 (NIK translocated) cells, averaged values, read-out: JJN-3 Proliferation inhibition (IC50 (nM))
Outline: (§1)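 JJN-3 and KMS12-BM cells in RPMI 1640 with 10% FCS were plated at 15000–20000 cells/well and treated 96 h with a 9-point 1:3 dilution series (0.3% DMSO). Viability read by CellTiter-Glo luminescence, blank (time-zero cells) subtracted, expressed as % of untreated control; duplicate wells.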

[4] = test system: KMS12-BM (NIK WT) multiple myeloma cells; experiment: Antiproliferative activity on KMS12-BM multiple myeloma cells (CellTiter-Glo, 96 hr), Biological Assay C; assay type: cell-based, human; settings: averaged values, read-out: KMS-12 Proliferation inhibition (IC50 (nM))
Outline: as §1

Sequence of recombinant human NF-kappaB-inducing kinase (NIK/MAP3K14) (Q99558 whole entry): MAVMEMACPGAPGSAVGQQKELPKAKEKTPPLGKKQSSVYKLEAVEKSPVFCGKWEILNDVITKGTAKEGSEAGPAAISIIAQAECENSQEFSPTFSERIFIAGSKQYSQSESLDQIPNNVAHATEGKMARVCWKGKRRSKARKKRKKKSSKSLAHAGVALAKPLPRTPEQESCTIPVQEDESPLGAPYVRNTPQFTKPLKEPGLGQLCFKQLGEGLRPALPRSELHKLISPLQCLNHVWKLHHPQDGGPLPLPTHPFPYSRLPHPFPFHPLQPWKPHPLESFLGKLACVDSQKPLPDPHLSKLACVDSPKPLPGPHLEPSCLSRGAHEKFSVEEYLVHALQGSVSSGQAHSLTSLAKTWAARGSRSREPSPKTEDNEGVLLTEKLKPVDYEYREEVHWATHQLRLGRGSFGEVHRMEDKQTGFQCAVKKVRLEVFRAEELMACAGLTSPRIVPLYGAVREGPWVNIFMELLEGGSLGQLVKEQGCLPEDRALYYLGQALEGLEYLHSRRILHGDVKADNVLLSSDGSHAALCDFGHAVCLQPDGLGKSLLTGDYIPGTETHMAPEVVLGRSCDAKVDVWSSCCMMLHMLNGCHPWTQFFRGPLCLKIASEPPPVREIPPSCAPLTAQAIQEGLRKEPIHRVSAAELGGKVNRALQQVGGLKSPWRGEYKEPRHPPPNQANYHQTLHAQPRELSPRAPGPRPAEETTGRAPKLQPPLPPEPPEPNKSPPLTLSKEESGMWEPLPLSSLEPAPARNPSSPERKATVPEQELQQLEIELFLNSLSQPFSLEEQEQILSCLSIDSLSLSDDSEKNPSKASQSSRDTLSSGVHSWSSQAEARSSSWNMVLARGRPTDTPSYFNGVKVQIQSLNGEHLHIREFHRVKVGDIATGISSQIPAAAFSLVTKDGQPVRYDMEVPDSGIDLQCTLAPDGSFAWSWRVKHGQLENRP

| SMILES | IC50 [1] [nM] | IC50 ([2]; Homo sapiens, L-363, 2 h) [nM] | IC50 ([3]; Homo sapiens, JJN-3, 96 h) [nM] | IC50 ([4]; Homo sapiens, KMS-12-BM, 96 h) [nM] | melting point [°C] | IC50 [2] [nM] | IC50 [3] [nM] | IC50 [4] [nM] |
| --- | --- | --- | --- | --- | --- | --- | --- | --- |
| Cc1ccc(C(=O)NC2CCN(C)C2)cc1Nc1nccc(-c2cc(C#N)c3c(c2)[C@@](C)(CO)CN3)n1 (mixture of isomers) [Compound 163] | 3.5 | 33.1 | 437 | > 10000 | 150 |  |  |  |
| Cc1cc(F)c(C(=O)NC2CCN(C)C2)cc1Nc1nccc(-c2cc(C#N)c3c(c2)[C@@](C)(CO)CN3)n1 (single isomer, unassigned) [Compound 166] | 8.9 | 18.6 | 955 | > 10000 | 116 |  |  |  |
| Cc1cc(F)c(C(=O)NC2CCN(C)C2)cc1Nc1nccc(-c2cc(C#N)c3c(c2)[C@@](C)(CO)CN3)n1 (single isomer, unassigned) [Compound 167] | 7.6 |  |  |  | 239 | 19.1 | 562 | 6170 |
| Cc1cc(F)c(C(=O)NC2CCOC2)cc1Nc1nccc(-c2cc(C#N)c3c(c2)[C@@](C)(CO)CN3)n1 (single isomer, unassigned) [Compound 168] | 10.7 | 14.5 | ~1410 | > 10000 | 246 |  |  |  |
| Cc1cc(F)c(C(=O)NC2CCOC2)cc1Nc1nccc(-c2cc(C#N)c3c(c2)[C@@](C)(CO)CN3)n1 (single isomer, unassigned) [Compound 169] | 8.7 |  |  |  | 256 | 8.3 | ~1000 | > 10000 |
| Cc1cc(C2CCCN(C)C2)c(C#N)cc1Nc1nccc(-c2cc(C#N)c3c(c2)[C@@](C)(CO)CN3)n1 (single isomer, unassigned) [Compound 178] | 2 | 2.6 | 42 | ~891 | 230 |  |  |  |
| Cc1ccc(C#N)cc1Nc1nccc(-c2cc(C#N)c3c(c2)[C@@](C)(CO)CN3)n1 [Compound 1] | 1.8 |  |  |  | 222 | 2.2 | 85 | 5190 |
| COCCOc1ccc(P(C)(C)=O)cc1Nc1nccc(-c2cc(C#N)c3c(c2)[C@@](C)(CO)CN3)n1 [Compound 5] | 2510 | > 10000 |  |  | 115 |  |  |  |
| C[C@]1(CO)CNc2c(C#N)cc(-c3ccnc(Nc4cc(P(C)(C)=O)ccc4OCC4CC4)n3)cc21 [Compound 6] | 447 | > 10000 |  |  | 148 |  |  |  |
| C[C@]1(CO)CNc2c(C#N)cc(-c3ccnc(Nc4cc(C#N)ccc4OCCO)n3)cc21 [Compound 8] | 1.3 | 32.4 | 87 | > 10000 | 184 |  |  |  |
| C[C@]1(CO)CNc2c(C#N)cc(-c3ccnc(Nc4cc(C#N)ccc4OCC4CC4)n3)cc21 [Compound 13] | 9.2 | 30.9 | 146 | > 10000 | 194 |  |  |  |
| Cc1ccc(C#N)cc1Nc1nccc(-c2cc(C#N)c3c(c2)[C@@](C)(C(C)(C)O)CN3)n1 [Compound 135] | 58.9 | 4370 |  |  | 166 |  |  |  |
| Cc1ccc(C(C)(C)O)cc1Nc1nccc(-c2cc(C#N)c3c(c2)[C@@](C)(CO)CN3)n1 [Compound 151] | 22.4 | 427 |  |  | 122 |  |  |  |
| Cc1ccc(C(=O)N2CCN(C)CC2)cc1Nc1nccc(-c2cc(C#N)c3c(c2)[C@@](C)(CO)CN3)n1 [Compound 161] | 20.4 | 407 |  |  | 245 |  |  |  |
| Cc1ccc(C#N)cc1Nc1nccc(-c2cc(C#N)c3c(c2)[C@@](C)(CF)CN3)n1 [Compound 164] | 26.9 | 288 |  |  | 194 |  |  |  |
| C[C@]1(CO)CNc2c(C#N)cc(-c3ccnc(Nc4cc(C#N)ccc4OCCCN)n3)cc21 [Compound 180] | 3.7 | 44.7 |  |  | 194 |  |  |  |

| SMILES | IC50 [1] [nM] | IC50 ([2]; Homo sapiens, L-363, 2 h) [nM] | IC50 ([3]; Homo sapiens, JJN-3, 96 h) [nM] | IC50 ([4]; Homo sapiens, KMS-12-BM, 96 h) [nM] | melting point [°C] | IC50 [2] [nM] | IC50 [3] [nM] | IC50 [4] [nM] |
| --- | --- | --- | --- | --- | --- | --- | --- | --- |
| CC(=O)NCCCCc1ccc(C#N)cc1Nc1nccc(-c2cc(C#N)c3c(c2)[C@@](C)(CO)CN3)n1 [Compound 185] | 6.5 | 6.6 |  |  | 156 |  |  |  |
| Cc1ccc(-c2cncn2C)cc1Nc1nccc(-c2cc(C#N)c3c(c2)[C@@](C)(CO)CN3)n1 [Compound 189] | 30.9 | 1620 |  |  | 239 |  |  |  |
| Cc1ccc(-c2ccnn2C)cc1Nc1nccc(-c2cc(C#N)c3c(c2)[C@@](C)(CO)CN3)n1 [Compound 190] | 34.7 | 2630 |  |  | 128 |  |  |  |
| Cc1ccc(-c2ncc[nH]2)cc1Nc1nccc(-c2cc(C#N)c3c(c2)[C@@](C)(CO)CN3)n1.Cl [Compound 191] | 13.8 | 4070 |  |  | 122 |  |  |  |
| Cc1c(Nc2nccc(-c3cc(C#N)c4c(c3)[C@@](C)(CO)CN4)n2)cc(C#N)cc1C(=O)O [Compound 201] | 2.8 | ~1200 |  |  | 220 |  |  |  |
| CC(=O)NC[C@@]1(C)CNc2c(C#N)cc(-c3ccnc(Nc4cc(C#N)ccc4C)n3)cc21 [Compound 211] | 16.2 | 3160 |  |  | 160 |  |  |  |
| Cc1ccc(C#N)cc1Nc1nccc(-c2cc(C#N)c3c(c2)[C@@](C)(CNS(C)(=O)=O)CN3)n1 [Compound 212] | 25.1 | ~4470 |  |  | 168 |  |  |  |
| Cc1ccc(CN2CCCC2)cc1Nc1nccc(-c2cc(C#N)c3c(c2)[C@@](C)(CO)CN3)n1 [Compound 216] | 49 | 144 |  |  | 108 |  |  |  |
| Cc1ccc(CNC2CC2)cc1Nc1nccc(-c2cc(C#N)c3c(c2)[C@@](C)(CO)CN3)n1 [Compound 218] | 3.6 | ~1230 |  |  | 115 |  |  |  |
| Cc1ccc(CN2CC(F)(F)C2)cc1Nc1nccc(-c2cc(C#N)c3c(c2)[C@@](C)(CO)CN3)n1 [Compound 219] | 15.5 | 5500 |  |  | 181 |  |  |  |
| Cc1ccc(CN2CCC(O)CC2)c(Nc2nccc(-c3cc(C#N)c4c(c3)[C@@](C)(CO)CN4)n2)c1 [Compound 221] | 32.4 | 646 |  |  | 181 |  |  |  |
| CN1CCC(Oc2ccc(C#N)cc2Nc2nccc(-c3cc(C#N)c4c(c3)[C@@](C)(CO)CN4)n2)C(F)C1 (stereo partly shown) [Compound 231] | 7.8 |  |  |  |  | 12.3 | 89 | > 10000 |
| CN1CC(F)C(Oc2ccc(C#N)cc2Nc2nccc(-c3cc(C#N)c4c(c3)[C@@](C)(CO)CN4)n2)C1 (stereo partly shown) [Compound 232] | 5.5 | 11.5 |  | > 10000 |  |  | 282 |  |
| CN1CC(F)C(Oc2ccc(C#N)cc2Nc2nccc(-c3cc(C#N)c4c(c3)[C@@](C)(CO)CN4)n2)C1 (stereo partly shown) [Compound 233] | 4.6 |  |  |  |  | 21.4 | 741 | > 10000 |
| Cc1ccc(OC2CCN(C)CC2)c(Nc2nccc(-c3cc(C#N)c4c(c3)[C@@](C)(CO)CN4)n2)c1 [Compound 234] | 3.5 | 5.9 | 20 |  | 192 |  |  |  |
| CNCc1ccc(C)c(Nc2nccc(-c3cc(C#N)c4c(c3)[C@@](C)(CO)CN4)n2)c1 [Compound 239] | 13.8 | 355 |  |  | 116 |  |  |  |
